From patent publication US9789089B2 (Gilead Sciences, Inc., priority 2013, dated 2017) come the findings set out here.

Data set [1] relates to HIV-IIIb. The experiment in a line: Test A: Antiviral Assay in MT4 Cells. The format is cell-based, HIV-1. Conditions: read-out: % inhibition at 6 μM. How it is done:
Test A: Antiviral Assay in MT4 Cells
(§1) For the antiviral assay, 40 μL of 1× test concentration of 3-fold serially diluted compound in culture medium with 10% FBS was added to each well of a 384-well plate (10 concentrations) in quadruplicate. MT-4 cells were next mixed with HIV-IIIb at an m.o.i of 0.003 for 1 hour, after which time 35 μL of virus/cell mixture (2000 cells) was immediately added to each well containing 40 μL of diluted compound. The plates were then incubated at 37° C. for 5 days. After 5 days of incubation, 25 μl of 2× concentrated CellTiter-Glo™ Reagent (catalog #G7571, Promega Biosciences, Inc., Madison, Wis.) was added to each well containing MT-4 cells. Cell lysis was carried out by incubating at room temperature for 10 min and then chemiluminescence was read.

The nature of data set [2]: Test B: Cytotoxicity assay. In kind it is cell-based. The settings on record: human, uninfected MT-4 cells, same protocol as Test A, CellTiter-Glo. The procedure:
as §1
Test B:Cytotoxicity assay
Compound cytotoxicity and the corresponding CC50 values was determined using the same protocol as described in the antiviral assay (Test A) except that uninfected cells were used.

[3] abbreviates: Human immunodeficiency virus 1, IIIB, MT4, 120 h.
Setting [4] is: Human immunodeficiency virus 1, MT4, 120 h, percent inhibition of virus-induced cell killing at 6 μM drug concentration, from the dose response curve, MT-4 cells infected with HIV-IIIb, 5 days.

Like-named read-outs stand apart in the source and are kept apart here.

Take `O=C(Cn1nc(C(F)(F)F)c2c1CCCC2)N[C@@H](Cc1ccccc1)c1nccn1-c1ccccc1` [Compound 1E, (S)—N-(2-phenyl-1-(1-phenyl-1H-imidazol-2-yl)ethyl)-2-(3-(trifluoromethyl)-4,5,6,7-tetrahydro-1H-indazol-1-yl)acetamide]: in data set [1] (setting [3]), the inhibition at 6 µM turned out to be 83%. In data set [2], this molecule returned a 50% cytotoxic concentration (CC50) at 5 days of 21.9 µM. Regarding `CC(C)CCn1ccnc1[C@H](Cc1ccccc1)NC(=O)Cn1nc(C(F)(F)F)c2c1CCCC2` [Compound 2, (S)—N-(1-(1-isopentyl-1H-imidazol-2-yl)-2-phenylethyl)-2-(3-(trifluoromethyl)-4,5,6,7-tetrahydro-1H-indazol-1-yl)acetamide], in data set [1] (setting [4]), the inhibition at 6 µM worked out at 6%. This molecule also returned a CC50 at 5 days in data set [2] of 27.8 µM. Take `COc1ccccc1Cn1ccnc1[C@H](Cc1ccccc1)NC(=O)Cc1c[nH]c2ccc(O)cc12` [Compound 3C, (S)-2-(5-hydroxy-1H-indol-3-yl)-N-(1-(1-(2-methoxybenzyl)-1H-imidazol-2-yl)-2-phenylethyl)acetamide]: in data set [1] (setting [3]), the inhibition at 6 µM came out at 19%. Besides, it took 37.1 µM to reach half-maximal cytotoxicity in data set [2] (CC50 at 5 days). Consider `COc1ccc(-n2ccnc2[C@H](Cc2cc(F)cc(F)c2)NC(=O)Cn2nc(C(F)(F)F)c3c2CCCC3)cc1` [Compound 5F, (S)—N-(2-(3,5-difluorophenyl)-1-(1-(4-methoxyphenyl)-1H-imidazol-2-yl)ethyl)-2-(3-(trifluoromethyl)-4,5,6,7-tetrahydro-1H-indazol-1-yl)acetamide], for which the inhibition at 6 µM in data set [1] (setting [3]) amounted to 79%. It took 13.5 µM to reach half-maximal cytotoxicity in data set [2] (CC50 at 5 days). On the same counts, the results for `COc1ccc(-n2ccnc2[C@@H](Cc2cc(F)cc(F)c2)NC(=O)Cn2nc(C(F)(F)F)c3c2CCCC3)cc1` [Compound 6B, (R)—N-(2-(3,5-difluorophenyl)-1-(1-(4-methoxyphenyl)-1H-imidazol-2-yl)ethyl)-2-(3-(trifluoromethyl)-4,5,6,7-tetrahydro-1H-indazol-1-yl)acetamide] are 4% and 12 µM. For the molecule `COc1ccc(-n2ccnc2[C@H](Cc2cc(F)cc(F)c2)NC(=O)Cc2c[nH]c3ccc(O)cc23)cc1` [Compound 7, (S)—N-(2-(3,5-difluorophenyl)-1-(1-(4-methoxyphenyl)-1H-imidazol-2-yl)ethyl)-2-(5-hydroxy-1H-indol-3-yl)acetamide], the inhibition at 6 µM in data set [1] (setting [3]) stood at 121%. Take `COc1ccc(-n2ccnc2[C@@H](Cc2cc(F)cc(F)c2)NC(=O)Cc2c[nH]c3ccc(O)cc23)cc1` [Compound 8, (R)—N-(2-(3,5-difluorophenyl)-1-(1-(4-methoxyphenyl)-1H-imidazol-2-yl)ethyl)-2-(5-hydroxy-1H-indol-3-yl)acetamide]: the inhibition at 6 µM in data set [1] (setting [3]) is 6%. In the case of `O=C(Cn1nc(C(F)(F)F)c2c1CCCC2)NC(Cc1ccccc1)c1cnnn1-c1ccccc1` (stereo not shown) [Compound 9E, N-(2-phenyl-1-(1-phenyl-1H-1,2,3-triazol-5-yl)ethyl)-2-(3-(trifluoromethyl)-4,5,6,7-tetrahydro-1H-indazol-1-yl)acetamide], in data set [1] (setting [3]), the inhibition at 6 µM was 0%. Further, the midpoint of cytotoxicity in data set [2], the CC50 at 5 days, lay at 13.2 µM. Regarding `Cc1nnc(C(Cc2ccccc2)NC(=O)Cc2c[nH]c3ccc(O)cc23)n1-c1ccccc1` (stereo not shown) [Compound 10G, 2-(5-hydroxy-1H-indol-3-yl)-N-(1-(5-methyl-4-phenyl-4H-1,2,4-triazol-3-yl)-2-phenylethyl)acetamide], the inhibition at 6 µM in data set [1] (setting [4]) worked out at 51%. The same molecule returned a CC50 at 5 days in data set [2] greater than 53.2 µM. On to `Cc1nnc(C(Cc2ccccc2)NC(=O)Cn2nc(C(F)(F)F)c3c2CCCC3)n1-c1ccccc1` (stereo not shown) [Compound 11, N-(1-(5-methyl-4-phenyl-4H-1,2,4-triazol-3-yl)-2-phenylethyl)-2-(3-(trifluoromethyl)-4,5,6,7-tetrahydro-1H-indazol-1-yl)acetamide], for which the inhibition at 6 µM in data set [1] (setting [4]) was found to be 76%. This molecule also came in with a CC50 at 5 days in data set [2] greater than 53 µM. With `O=C(Cc1c[nH]c2ccc(O)cc12)NC(Cc1ccccc1)c1cnnn1-c1ccccc1` (stereo not shown) [Compound 12, 2-(5-hydroxy-1H-indol-3-yl)-N-(2-phenyl-1-(1-phenyl-1H-1,2,3-triazol-5-yl)ethyl)acetamide], the inhibition at 6 µM in data set [1] (setting [4]) was 4%. The same molecule showed a CC50 at 5 days in data set [2] greater than 53 µM. Regarding `Cc1ccccc1-c1scnc1C(Cc1cc(F)cc(F)c1)NC(=O)Cc1c[nH]c2ccc(O)cc12` (stereo not shown) [Compound 13E, N-(2-(3,5-difluorophenyl)-1-(5-(o-tolyl)thiazol-4-yl)ethyl)-2-(5-hydroxy-1H-indol-3-yl)acetamide], in data set [1] (setting [3]), the inhibition at 6 µM was 93%. Take `Cc1ccccc1-c1scnc1C(Cc1cc(F)cc(F)c1)NC(=O)Cn1nc(C(F)(F)F)c2c1CCCC2` (stereo not shown) [Compound 14, N-(2-(3,5-difluorophenyl)-1-(5-(o-tolyl)thiazol-4-yl)ethyl)-2-(3-(trifluoromethyl)-4,5,6,7-tetrahydro-1H-indazol-1-yl)acetamide]: the inhibition at 6 µM in data set [1] (setting [4]) stood at 60%. The same molecule registered a CC50 at 5 days in data set [2] of 11.3 µM. On the same counts, the results for `Cc1nc(-c2ccccc2)c(C(Cc2ccccc2)NC(=O)Cc2c[nH]c3ccc(O)cc23)s1` (stereo not shown) [Compound 15C, 2-(5-hydroxy-1H-indol-3-yl)-N-(1-(2-methyl-4-phenylthiazol-5-yl)-2-phenylethyl)acetamide] are 0% and 35 µM. As to `Cc1nc(-c2ccccc2)c([C@H](Cc2ccccc2)NC(=O)Cn2nc(C(F)(F)F)c3c2CCCC3)s1` [Compound 16, (S)—N-(1-(2-methyl-4-phenylthiazol-5-yl)-2-phenylethyl)-2-(3-(trifluoromethyl)-4,5,6,7-tetrahydro-1H-indazol-1-yl)acetamide], in data set [1] (setting [4]), the inhibition at 6 µM turned out to be 0%. In data set [2], this molecule had a CC50 at 5 days of 51.9 µM. On to `O=C(Cc1c[nH]c2ccc(F)cc12)N[C@@H](Cc1cc(F)cc(F)c1)c1nnc(-c2ccccc2)o1` [Compound 17B, (S)—N-(2-(3,5-difluorophenyl)-1-(5-phenyl-1,3,4-oxadiazol-2-yl)ethyl)-2-(5-fluoro-1H-indol-3-yl)acetamide], for which, in data set [1] (setting [3]), the inhibition at 6 µM turned out to be 0%. The CC50 at 5 days in data set [2] is greater than 53 µM. Consider `O=C(Cc1c[nH]c2ccc(F)cc12)N[C@@H](Cc1ccccc1)c1nc(-c2ccccc2)no1` [Compound 18B, (S)-2-(5-fluoro-1H-indol-3-yl)-N-(2-phenyl-1-(3-phenyl-1,2,4-oxadiazol-5-yl)ethyl)acetamide], for which the inhibition at 6 µM in data set [1] (setting [3]) was determined as 4%. Also, the CC50 at 5 days in data set [2] is greater than 53 µM.

`O=C(Cc1c[nH]c2ccc(F)cc12)NC(Cc1cc(F)cc(F)c1)c1cnc(-c2ccc(Cl)cc2)o1` (stereo not shown) [Compound 19F, N-(1-(2-(4-chlorophenyl)oxazol-5-yl)-2-(3,5-difluorophenyl)ethyl)-2-(5-fluoro-1H-indol-3-yl)acetamide]: the inhibition at 6 µM in data set [1] (setting [4]) was determined as 0%. The midpoint of cytotoxicity in data set [2], the CC50 at 5 days, lay at 9.14 µM. Consider `O=C(Cn1nc(C(F)(F)F)c2c1CCCC2)NC(Cc1cc(F)cc(F)c1)c1cnc(-c2ccc(Cl)cc2)o1` (stereo not shown) [Compound 20, N-(1-(2-(4-chlorophenyl)oxazol-5-yl)-2-(3,5-difluorophenyl)ethyl)-2-(3-(trifluoromethyl)-4,5,6,7-tetrahydro-1H-indazol-1-yl)acetamide], for which, in data set [1] (setting [3]), the inhibition at 6 µM was found to be 1%. For the same molecule, the CC50 at 5 days in data set [2] is 12.2 µM.

As to `COc1ccc2[nH]cc(CC(=O)NC(Cc3cc(F)cc(F)c3)c3cnc(-c4ccc(Cl)cc4)o3)c2n1` (stereo not shown) [Compound 21, N-(1-(2-(4-chlorophenyl)oxazol-5-yl)-2-(3,5-difluorophenyl)ethyl)-2-(5-methoxy-1H-pyrrolo[3,2-b]pyridin-3-yl)acetamide], in data set [1] (setting [4]), the inhibition at 6 µM came to 2%. In data set [2], half-maximal cytotoxicity (CC50 at 5 days) was put at 25.4 µM. The matching figures for `O=C(Cc1c[nH]c2ccc(O)nc12)NC(Cc1cc(F)cc(F)c1)c1cnc(-c2ccc(Cl)cc2)o1` (stereo not shown) [Compound 22, N-(1-(2-(4-chlorophenyl)oxazol-5-yl)-2-(3,5-difluorophenyl)ethyl)-2-(5-hydroxy-1H-pyrrolo[3,2-b]pyridin-3-yl)acetamide]: 1% and 50.7 µM. In the case of `O=C(Cc1c[nH]c2ccc(O)cc12)N[C@@H](Cc1cc(F)cc(F)c1)c1nocc1-c1ccc(Cl)cc1` [Compound 26, (S)—N-(1-(4-(4-chlorophenyl)isoxazol-3-yl)-2-(3,5-difluorophenyl)ethyl)-2-(5-hydroxy-1H-indol-3-yl)acetamide], in data set [1] (setting [3]), the inhibition at 6 µM worked out at 106%. The same measure, in the same setting: the value for `O=C(Cc1c[nH]c2ccc(O)cc12)N[C@H](Cc1cc(F)cc(F)c1)c1nocc1-c1ccc(Cl)cc1` [Compound 28B, (R)—N-(1-(4-(4-chlorophenyl)isoxazol-3-yl)-2-(3,5-difluorophenyl)ethyl)-2-(5-hydroxy-1H-indol-3-yl)acetamide] was 3%; that for `Cn1cnc(C(Cc2cc(F)cc(F)c2)NC(=O)Cc2c[nH]c3ccc(O)cc23)c1-c1ccc(Cl)cc1` (stereo not shown) [Compound 31, N-(1-(5-(4-chlorophenyl)-1-methyl-1H-imidazol-4-yl)-2-(3,5-difluorophenyl)ethyl)-2-(5-hydroxy-1H-indol-3-yl)acetamide] was 75%. The molecule `Cc1cc2ncn(CC(=O)NC(Cc3cc(F)cc(F)c3)c3ncoc3-c3ccc(Cl)cc3)c2cc1C` (stereo not shown) [Compound 33H, N-(1-(5-(4-chlorophenyl)oxazol-4-yl)-2-(3,5-difluorophenyl)ethyl)-2-(5,6-dimethyl-1H-benzo[d]imidazol-1-yl)acetamide] registered a CC50 at 5 days in data set [2] of 31.8 µM.
